The source of these data is patent US9351974B2, “Substituted pteridinones for the treatment of cancer” (OSI Pharmaceuticals, LLC, priority 2011, dated 2016).

The target of the assay is T1, His-tagged full-length RSK2 (RPS6KA3) (Homo sapiens, UniProt P51812).
T1 construct: His-tagged full-length RSK2 (RPS6KA3, Invitrogen PV3323); His; purchased Invitrogen PV3323
Put plainly: RSK2 Omnia Assay for compound IC50 determination. The conditions noted are these: ATP 15 μM, n=2, read-out: Mean RSK2 Biochem IC50. Format: biochemical. The protocol:
RSK1 & RSK2 Omnia Assay Protocol for Compound IC50 Determination
The Omnia Assay (Invitrogen) has been optimized for His-tagged full length RSK1 (RPS6KA1, Millipore 14-509) and for His-tagged full-length RSK2 (RPS6KA3, Invitrogen PV3323). In this assay system, Omnia ST Peptide 6 (Invitrogen KNZ1061) functions as a substrate for RSK1 or RSK2. Phosphorylation of this SOX-containing peptide results in an increase in fluorescence at 485 nm upon excitation at 360 nm.
Assays are carried out in 384-well OptiPlates (Perkin Elmer 6007290) in a total volume of 20 μL containing RSK1 ([…]) or RSK2 ([…]), Omnia ST Peptide 6 (5 μM), ATP (15 μM, Km=16.3 μM), and test compound (variable) in RSK assay buffer (50 mM HEPES, pH 7.5, 10 mM MgCl2, 0.01% Tween-20, 1% glycerol, 1 mM DTT, 1 mM EGTA, 0.01% BSA) with 1% DMSO.
IC50s for test compounds are typically determined using an 11-point three-fold serial dilution with a final assay concentration ranging either from 170 μM to […] or from 17 μM to […]. All compound concentrations are assayed in duplicate. Initial compound dilutions are prepared at 100× concentration in 100% DMSO from a 10 mM stock solution. Compounds are further diluted 1:25 in assay buffer resulting in a 4× concentrated solution.
To run the assay 5 μL of the above 4× concentrated compound solution (or 4% DMSO for positive controls) is added to the assay plate followed by 5 μL of a solution containing peptide (20 μM) and ATP (60 μM) in assay buffer. The reaction is initiated by the addition of 10 μL of RSK1 ([…]) or RSK2 ([…]) in assay buffer, or assay buffer alone for negative controls. The increase in fluorescence due to peptide phosphorylation is monitored continuously as a function of time using a Spectramax M5 plate reader (Molecular Devices) equipped with SoftMax Pro software.
The slopes from the linear portion of progress curves are used to determine IC50 values by non-linear curve-fitting to a four-parameter equation using GraphPad Prism (GraphPad Software, Inc.) or XLFit (IDBS). IC50's are determined in duplicate (n=2) and Ki values are calculated from IC50 values using the Cheng-Prusoff equation assuming a competitive mode of inhibition.

T1 sequence (P51812 whole entry): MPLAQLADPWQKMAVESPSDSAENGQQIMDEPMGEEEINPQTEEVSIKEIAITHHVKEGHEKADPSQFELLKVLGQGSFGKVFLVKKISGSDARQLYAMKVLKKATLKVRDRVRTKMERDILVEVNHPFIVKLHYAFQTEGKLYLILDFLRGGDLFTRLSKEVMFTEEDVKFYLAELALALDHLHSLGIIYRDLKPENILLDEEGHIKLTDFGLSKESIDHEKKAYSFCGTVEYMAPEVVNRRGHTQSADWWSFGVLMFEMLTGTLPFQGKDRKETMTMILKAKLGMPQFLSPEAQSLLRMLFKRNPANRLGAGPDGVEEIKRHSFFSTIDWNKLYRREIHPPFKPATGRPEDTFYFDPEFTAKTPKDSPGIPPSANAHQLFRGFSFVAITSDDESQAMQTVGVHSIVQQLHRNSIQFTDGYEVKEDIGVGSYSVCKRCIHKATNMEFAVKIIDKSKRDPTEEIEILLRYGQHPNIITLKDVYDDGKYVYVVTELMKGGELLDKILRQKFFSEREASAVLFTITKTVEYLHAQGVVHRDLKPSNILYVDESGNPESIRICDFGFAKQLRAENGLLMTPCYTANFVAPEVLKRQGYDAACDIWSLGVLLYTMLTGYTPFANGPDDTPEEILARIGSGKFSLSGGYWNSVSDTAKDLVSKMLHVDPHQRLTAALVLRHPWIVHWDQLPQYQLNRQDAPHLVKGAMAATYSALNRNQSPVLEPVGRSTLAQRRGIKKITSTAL

As usually defined, the IC50 is the concentration that gives 50% inhibition. Take `CC(C)CCN1c2nc(Nc3ccc4[nH]ncc4c3)ncc2N(c2ccccc2)C(=O)[C@H]1C` [Example 16, (7R)-2-(1H-indazol-5-ylamino)-7-methyl-8-(3-methylbutyl)-5-phenyl-7,8-dihydropteridin-6(5H)-one]: the IC50 was at most 100 nM.

For `COc1ccc(N2C(=O)[C@@H](C)N(C3CCOCC3)c3nc(Nc4cc(F)c5[nH]ncc5c4)ncc32)cn1` [compound 192, (7R)-2-[(7-fluoro-1H-indazol-5-yl)amino]-5-(6-methoxypyridin-3-yl)-7-methyl-8-(tetrahydro-2H-pyran-4-yl)-7,8-dihydropteridin-6(5H)-one], the IC50 was at most 100 nM.

For the compound `COc1ccc(N2C(=O)[C@@H](C)N(C3CCCCC3)c3nc(Nc4cc(F)c5[nH]ncc5c4)ncc32)cc1OC` [compound 132, (7R)-8-cyclohexyl-5-(3,4-dimethoxyphenyl)-2-[(7-fluoro-1H-indazol-5-yl)amino]-7-methyl-7,8-dihydropteridin-6(5H)-one], the IC50 was at most 100 nM.

Take `CC1C(=O)N(c2ccccc2)c2cnc(Nc3ccc4[nH]ncc4c3)nc2N1c1ccccc1` (stereo not drawn) [Example 178, 2-(1H-indazol-5-ylamino)-7-methyl-5,8-diphenyl-7,8-dihydropteridin-6(5H)-one]: the IC50 was at most 100 nM.

Regarding `C[C@@H]1C(=O)N(c2cccc(C#N)c2)c2cnc(Nc3ccc4[nH]ncc4c3)nc2N1CC1CCC1` [Example 71, 3-[(7R)-8-(cyclobutylmethyl)-2-(1H-indazol-5-ylamino)-7-methyl-6-oxo-7,8-dihydropteridin-5(6H)-yl]benzonitrile], the IC50 is at most 100 nM.

On to `C[C@@H]1C(=O)N(c2ccc(N3CCN(C)CC3)c(C#N)c2)c2cnc(Nc3cc(F)c4[nH]ncc4c3)nc2N1[C@H]1CC[C@H](C)CC1` [compound 251, 5-[(7R)-2-[(7-fluoro-1H-indazol-5-yl)amino]-7-methyl-8-(trans-4-methylcyclohexyl)-6-oxo-7,8-dihydropteridin-5(6H)-yl]-2-(4-methylpiperazin-1-yl)benzonitrile], for which the IC50 was at most 100 nM.

In the case of `C[C@@H]1C(=O)N(c2ccc(C#N)cc2)c2cnc(Nc3ccc4[nH]ncc4c3)nc2N1C1CCCCC1` [Example 19, 4-[(7R)-8-cyclohexyl-2-(1H-indazol-5-ylamino)-7-methyl-6-oxo-7,8-dihydropteridin-5(6H)-yl]benzonitrile], the IC50 is at most 100 nM.

Turning to `C[C@@H]1C(=O)N(c2cccnc2)c2cnc(Nc3ccc4[nH]c(=O)oc4c3)nc2N1C1CCCCC1` [compound 151, (7R)-8-cyclohexyl-7-methyl-2-[(2-oxo-2,3-dihydro-1,3-benzoxazol-6-yl)amino]-5-(pyridin-3-yl)-7,8-dihydropteridin-6(5H)-one], the IC50 is at most 100 nM.

Take `C[C@@H]1C(=O)N(c2cccc(C#N)c2)c2cnc(Nc3ccc(CO)cc3)nc2N1C1CCCCC1` [compound 171]: the IC50 was at most 100 nM.

As for `CNS(=O)(=O)c1ccc(N2C(=O)[C@@H](C)N(C3CCCCC3)c3nc(Nc4ccc5[nH]ncc5c4)ncc32)cc1` [Example 37, 4-[(7R)-8-cyclohexyl-2-(1H-indazol-5-ylamino)-7-methyl-6-oxo-7,8-dihydropteridin-5(6H)-yl]-N-methylbenzenesulfonamide], the IC50 was at most 100 nM.

Consider `C[C@@H]1C(=O)N(c2cccnc2)c2cnc(Nc3cnc4[nH]ncc4c3)nc2N1C1CCCCC1` [compound 154, (7R)-8-cyclohexyl-7-methyl-2-(1H-pyrazolo[3,4-b]pyridin-5-ylamino)-5-(pyridin-3-yl)-7,8-dihydropteridin-6(5H)-one], for which the IC50 was at most 100 nM.

Turning to `CC(C)CCN1c2nc(Nc3ccc(CS(=O)(=O)N(C)C)cc3)ncc2N(c2ccccc2)C(=O)C1C` (stereo not drawn) [Example 8, N,N-dimethyl-1-(4-{[7-methyl-8-(3-methylbutyl)-6-oxo-5-phenyl-5,6,7,8-tetrahydropteridin-2-yl]amino}phenyl)methanesulfonamide], the IC50 is above 1000 nM.
